Tests used:
[1] = molecular target: human STING protein (Homo sapiens (Human), UniProt Q86WV6); assay: WT STING binding assay (HTRF, competition with labeled 2′3′cGAMP); details: recombinant 6×His-tagged human STING, three hours at room temperature
Method: WT STING binding assay (Cisbio, Catalog #64BDSTGPEH). […] Upon proximity of the two dyes, the excitation of the donor by the flash lamp on the PHERAstar FSX plate reader triggers a Fluorescence Resonance Energy Transfer (FRET) towards the acceptor, which in turn fluoresces at 665 nm. To assess the ability of the synthetic small molecule STING ligands to bind to human STING, a competitive assay format was applied. A 10-point titration of each of the synthetic ligands in 5 uL were transferred into a 384 well plate, followed by 20 uL of assay buffer containing the 6×His-tagged human STING protein and labeled 2′3′cGAMP ligand and incubated for three hours at room temperature. The raw values obtained from the PHERAstar were used to calculate the reported IC50 values (the signal is inversely proportional to the binding of the synthetic ligand) through curve fitting in Genedata. The percent inhibition was calculated based upon the maximal amount of binding by synthetic compound versus the maximum binding of unlabeled 2′3′ cGAMP which was used as a control in each assay.

[2] = tested on: THP-1 Lucia ISG cells; assay: ISRE-luciferase assay (ISG-LUC activation); assay type: cell-based; details: Homo sapiens, THP1-Lucia ISG, 24 hours, luciferase reporter
In short: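 THP-1 Lucia ISG cells at 5×10^5 cells/ml in 2% FBS medium were treated with test article or DMSO vehicle for 24 h. Secreted luciferase was read by luminescence and normalized to vehicle, reported as RLU.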

Chain of human STING protein (Q86WV6 whole entry): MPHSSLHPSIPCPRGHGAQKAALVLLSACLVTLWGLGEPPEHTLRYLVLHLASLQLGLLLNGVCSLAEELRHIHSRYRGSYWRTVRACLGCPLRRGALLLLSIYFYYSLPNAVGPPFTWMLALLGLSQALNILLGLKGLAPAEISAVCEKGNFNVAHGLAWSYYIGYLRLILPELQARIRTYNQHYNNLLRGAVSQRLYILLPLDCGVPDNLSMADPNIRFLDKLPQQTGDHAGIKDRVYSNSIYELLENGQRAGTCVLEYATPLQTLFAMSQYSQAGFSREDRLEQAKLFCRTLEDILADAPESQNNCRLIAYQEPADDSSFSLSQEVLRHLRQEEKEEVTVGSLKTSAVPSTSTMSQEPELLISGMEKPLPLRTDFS

Row | Structure (SMILES) | IC50 [1] | EC50 [2]
1 | O=C(Nc1cc(CCCc2ccc(C(=O)O)c(NC(=O)c3ccc4nnnn4n3)c2)c(Cl)cc1C(=O)O)c1ccc(-n2ccnc2)nn1 [Compound 105] | 10 to 100 nM | 500 to 5000 nM
2 | COc1cc(C(=O)O)c(NC(=O)c2ccc(-n3ccnc3)nn2)cc1CCCc1cc(NC(=O)c2ccc3nnnn3n2)c(C(=O)O)cc1F [Compound 107] | 10 to 100 nM | 50 to 500 nM
3 | COc1cc(C(=O)O)c(NC(=O)c2ccc(-n3ccnc3)nn2)cc1OCCc1cc(NC(=O)c2ccc3nnnn3n2)c(C(=O)O)cc1Cl [Compound 109] | 100 to 1000 nM | 500 to 5000 nM
4 | COc1cc(C(=O)O)c(NC(=O)c2ccc(-n3ccnc3)nn2)cc1OCCc1cc(NC(=O)c2ccc3nnnn3n2)c(C(=O)O)cc1F [Compound 110] | 100 to 1000 nM | > 5000 nM
5 | O=C(Nc1cc(CCCc2cc(NC(=O)c3ccc(-n4ccnc4)nn3)c(C(=O)O)cc2F)c(F)cc1C(=O)O)c1cccnn1 [Compound 111] | 10 to 100 nM | 50 to 500 nM
6 | O=C(Nc1cc(CCCc2cnc(C(=O)O)c(NC(=O)c3ccc4nnnn4n3)c2)c(F)cc1C(=O)O)c1ccc(-n2ccnc2)nn1 [Compound 112] | 10 to 100 nM | 500 to 5000 nM
7 | O=C(Nc1cc(OCCc2cc(NC(=O)c3ccc4nnnn4n3)c(C(=O)O)cc2Cl)ccc1C(=O)O)c1ccc(-n2ccnc2)nn1 [Compound 114] | 100 to 1000 nM | 50 to 500 nM
8 | COc1cc(C(=O)O)c(NC(=O)c2ccc3nnnn3n2)cc1CCCc1cc(NC(=O)c2ccc(-n3ccnc3)nn2)c(C(=O)O)cc1F [Compound 115] | 10 to 100 nM | 50 to 500 nM
9 | O=C(Nc1cc(OCCc2cc(NC(=O)c3ccc4nnnn4n3)c(C(=O)O)cc2F)c(F)cc1C(=O)O)c1ccc(-n2ccnc2)nn1 [Compound 116] | 10 to 100 nM | 50 to 500 nM
10 | O=C(Nc1cc(CCCc2cc(NC(=O)c3ccc4cnnn4n3)c(C(=O)O)cc2F)c(F)cc1C(=O)O)c1ccc(-n2ccnc2)nn1 [Compound 117] | 10 to 100 nM | 500 to 5000 nM
11 | O=C(Nc1cc(CCOc2c(F)cc(C(=O)O)c(NC(=O)c3ccc4nnnn4n3)c2F)c(F)cc1C(=O)O)c1ccc(-n2ccnc2)nn1 [Compound 118] | 100 to 1000 nM | 500 to 5000 nM
12 | O=C(Nc1cc(CCOc2cc(NC(=O)c3ccc(-n4ccnc4)nn3)c(C(=O)O)cc2F)c(F)cc1C(=O)O)c1ccc(-n2ccnc2)nn1 [Compound 119] | 10 to 100 nM | 50 to 500 nM
13 | O=C(Nc1cc(CCOc2c(F)cc(C(=O)O)c(NC(=O)c3ccc(-n4ccnc4)nn3)c2F)c(F)cc1C(=O)O)c1ccc(-n2ccnc2)nn1 [Compound 123] | 100 to 1000 nM | 50 to 500 nM
14 | COc1cc(C(=O)O)c(NC(=O)c2ccc(-n3ccnc3)nn2)cc1CSCc1cc(NC(=O)c2ccc(-n3ccnc3)nn2)c(C(=O)O)cc1F [Compound 124] | 10 to 100 nM | 50 to 500 nM
15 | COc1cc(C(=O)O)c(NC(=O)c2ccc(-n3ccnc3)nn2)cc1OCCc1cc(C(=O)O)c(NC(=O)c2ccc3nnnn3n2)cc1C#N [Compound 128] | 10 to 100 nM | 50 to 500 nM
16 | O=C(Nc1cc(OCCc2cc(NC(=O)c3ccc(-n4ccnc4)nn3)c(C(=O)O)cc2Cl)c(F)cc1C(=O)O)c1ccc(-n2ccnc2)nn1 [Compound 129] | 10 to 100 nM | 50 to 500 nM
17 | NC(=O)c1nnn2nc(C(=O)Nc3cc(CCOc4cc(NC(=O)c5ccc(-n6ccnc6)nn5)c(C(=O)O)cc4F)c(F)cc3C(=O)O)ccc12 [Compound 135] | 10 to 100 nM | 50 to 500 nM
18 | N#Cc1nnn2nc(C(=O)Nc3cc(CCOc4cc(NC(=O)c5ccc(-n6ccnc6)nn5)c(C(=O)O)cc4F)c(F)cc3C(=O)O)ccc12 [Compound 136] | 100 to 1000 nM | > 5000 nM
19 | Nc1cc(C(=O)Nc2cc(OCCc3cc(NC(=O)c4ccc(-n5ccnc5)nn4)c(C(=O)O)cc3F)c(F)cc2C(=O)O)nn2nnnc12 [Compound 137] | 10 to 100 nM | 50 to 500 nM
20 | COC(=O)c1cc(F)c(CCOc2cc(NC(=O)c3ccc(-n4ccnc4)nn3)c(C(=O)O)cc2F)cc1NC(=O)c1ccc(-n2ccnc2)nn1 [Compound 140] | 100 to 1000 nM | < 50 nM
21 | COc1cc(NC(=O)c2ccc(-n3ccnc3)nn2)c(C(=O)O)cc1OCCc1cc(NC(=O)c2ccc(-n3ccnc3)nn2)c(C(=O)O)cc1F [Compound 142] | 10 to 100 nM | 50 to 500 nM
22 | O=C(Nc1cc(CS(=O)(=O)Cc2cc(NC(=O)c3ccc(-n4ccnc4)nn3)c(C(=O)O)cc2F)c(F)cc1C(=O)O)c1ccc(-n2ccnc2)nn1 [Compound 143] | 10 to 100 nM | > 5000 nM

Row | Structure (SMILES) | IC50 [1] | EC50 [2]
23 | COc1cc(NC(=O)c2ccc3nnnn3n2)c(C(=O)O)cc1OCCc1cc(NC(=O)c2ccc(-n3ccnc3)nn2)c(C(=O)O)cc1F [Compound 147] | 100 to 1000 nM | > 5000 nM
24 | O=C(Nc1cc(CCOCc2cc(NC(=O)c3ccc(-n4ccnc4)nn3)c(C(=O)O)cc2F)c(F)cc1C(=O)O)c1ccc(-n2ccnc2)nn1 [Compound 149] | 10 to 100 nM | 500 to 5000 nM
25 | O=C(Nc1cc(COCc2cc(NC(=O)c3ccc(-n4ccnc4)nn3)c(C(=O)O)cc2F)c(F)cc1C(=O)O)c1ccc(-n2ccnc2)nn1 [Compound 151] | 10 to 100 nM | 50 to 500 nM
26 | O=C(Nc1cc(OCCc2cc(NC(=O)c3ccc(-n4ccnc4)nn3)c(C(O)C(=O)O)cc2F)c(F)cc1C(=O)O)c1ccc(-n2ccnc2)nn1 (stereo not shown) [Compound 154] | 100 to 1000 nM | 500 to 5000 nM
27 | O=C(Nc1cc(CCOc2cc(NC(=O)c3ccc4nnnn4n3)c(C(=O)O)cc2F)c(F)cc1C(=O)O)c1ccc2nnnn2n1 [Compound 160] | 100 to 1000 nM | > 5000 nM
28 | O=C(Nc1cc(CCCc2cc(NC(=O)c3ccc4nnnn4n3)c(C(=O)O)cc2F)c(F)cc1C(=O)O)c1ccc2nnnn2n1 [Compound 161] | 100 to 1000 nM | > 5000 nM
29 | N#Cc1cc(C(=O)O)c(NC(=O)c2ccc(-n3ccnc3)nn2)cc1OCCc1cc(NC(=O)c2ccc(-n3ccnc3)nn2)c(C(=O)O)cc1F [Compound 167] | 10 to 100 nM | 50 to 500 nM
30 | COc1cc(NC(=O)c2ccc(-n3ccnc3)nn2)c(C(=O)O)c(F)c1CCCc1cc(NC(=O)c2ccc(-n3ccnc3)nn2)c(C(=O)O)cc1F [Compound 170] | 10 to 100 nM | 50 to 500 nM
31 | O=C(Nc1cc(OCCOc2cc(NC(=O)c3ccc(-n4ccnc4)nn3)c(C(=O)O)cc2F)c(F)cc1C(=O)O)c1ccc(-n2ccnc2)nn1 [Compound 171] | 10 to 100 nM | 50 to 500 nM
32 | O=C(Nc1cc(F)c(CCCc2cc(C(=O)O)c(NC(=O)c3ccc(-n4ccnc4)nn3)cc2F)cc1C(=O)O)c1ccc(-n2ccnc2)nn1 [Compound 172] | 100 to 1000 nM | > 5000 nM
33 | CCOC(=O)c1cc(F)c(CCCc2cc(NC(=O)c3ccc(-n4ccnc4)nn3)c(C(=O)O)cc2F)cc1NC(=O)c1ccc(-n2ccnc2)nn1 [Compound 173, 2-(6-(1H-imidazol-1-yl)pyridazine-3-carboxamido)-4-(3-(5-(6-(1H-imidazol-1-yl)pyridazine-3-carboxamido)-4-(ethoxycarbonyl)-2-fluorophenyl)propyl)-5-fluorobenzoic acid] | 10 to 100 nM | < 50 nM
34 | O=C(Nc1cc(OCCc2cc(C(=O)O)c(NC(=O)c3ccc4nnnn4n3)cc2F)c(F)cc1C(=O)O)c1ccc2nnnn2n1 [Compound 176] | 100 to 1000 nM | > 5000 nM
35 | O=C(Nc1cc(OCCc2cc(NC(=O)c3ccc(-n4ccnc4)nn3)c(C(=O)O)nc2Cl)c(F)cc1C(=O)O)c1ccc(-n2ccnc2)nn1 [Compound 181] | 10 to 100 nM | 50 to 500 nM
36 | C#Cc1cc(C(=O)O)c(NC(=O)c2ccc(-n3ccnc3)nn2)cc1CCOc1cc(NC(=O)c2ccc(-n3ccnc3)nn2)c(C(=O)O)cc1F [Compound 183] | 100 to 1000 nM | 500 to 5000 nM
37 | O=C(Nc1cc(CSCc2cc(NC(=O)c3ccc4nnnn4n3)c(C(=O)O)cc2F)c(F)cc1C(=O)O)c1ccc(-n2ccnc2)nn1 [Compound 184] | 10 to 100 nM | 500 to 5000 nM
38 | CC(COc1cc(NC(=O)c2ccc(-n3ccnc3)nn2)c(C(=O)O)cc1F)COc1cc(NC(=O)c2ccc(-n3ccnc3)nn2)c(C(=O)O)cc1F [Compound 185] | 10 to 100 nM | 500 to 5000 nM
39 | O=C(Nc1cc(CCc2cc(NC(=O)c3ccc(-n4ccnc4)nn3)c(C(=O)O)cc2F)c(F)cc1C(=O)O)c1ccc(-n2ccnc2)nn1 [Compound 187] | 10 to 100 nM | 50 to 500 nM
40 | O=C(Nc1cc(CCCc2cc(NC(=O)c3cc4nnnn4nn3)c(C(=O)O)cc2F)c(F)cc1C(=O)O)c1ccc(-c2cn[nH]c2)nn1 [Compound 192] | 10 to 100 nM | 500 to 5000 nM
41 | O=C(Nc1cc(CCOc2cc(NC(=O)c3ccc4nnnn4n3)c(C(=O)O)cc2F)c(Cl)cc1C(=O)O)c1ccc(-n2ccnc2)nn1 [Compound 196] | 10 to 100 nM | 50 to 500 nM
42 | O=C(Nc1cc(CCOc2cc(NC(=O)c3ccc(-n4ccnc4)nn3)c(C(=O)O)cc2Cl)c(F)cc1C(=O)O)c1ccc(-n2ccnc2)nn1 [Compound 197] | 10 to 100 nM | 50 to 500 nM
43 | O=C(Nc1cc(CCCCc2cc(NC(=O)c3ccc(-n4ccnc4)nn3)c(C(=O)O)cc2F)c(F)cc1C(=O)O)c1ccc(-n2ccnc2)nn1 [Compound 202] | 10 to 100 nM | 50 to 500 nM
44 | O=C(Nc1cc(OCCCOc2cc(NC(=O)c3ccc(-n4ccnc4)nn3)c(C(=O)O)cc2F)ccc1C(=O)O)c1ccc(-n2ccnc2)nn1 [Compound 203] | 10 to 100 nM | 500 to 5000 nM
